This is an account of results in patent US12138312B2, “Cell-penetrating peptides for antisense delivery” (Sarepta Therapeutics, Inc., priority 2017, dated 2024).

The test relates to HeLa 654 cells. Kind of test: eGFP exon-skipping reporter assay, flow cytometry analysis of GFP fluorescence. The test is classed as cell-based.
Where [1] appears, read: eGFP fluorescence of CPP-PMO IVS2-654 conjugate compared to unconjugated PMO, 5 μM, 22 hours, MEM with 10% FBS.
Where [2] appears, read: […], 5 μM, 22 hours, MEM with 10% FBS.

Where two headings read alike, the source gives them in different places. No end group written: not given here.

Take Buforin 2: the “Activity Relative to PMO” value under setting [1] is listed as 1.9.

On to Melittin, for which, under setting [2], the “Activity Relative to PMO” value worked out at 4.5.

In the case of Penetratin, the “Activity Relative to PMO” value under setting [1] came to 4.2.

With “Pyrrhocoricin (VDKGSYLPRPTPPRPIYNRN; ends and bridges not checked; also: conjugated to PMO cargo; UniProt P37362 1-20, looked up)”, the “Activity Relative to PMO” value worked out at 1.4.

On to SAP(E), for which, under setting [1], the “Activity Relative to PMO” value stood at 0.8.

Consider Transportan 10, for which the “Activity Relative to PMO” value under setting [2] was 0.8.

In the case of “λN(1-22): PMO IVS2-654 conjugated to CPP MDAQTRRRERRAEKQAQWKAAN (also: conjugated to PMO IVS2-654 cargo; UniProt P03045 1-22, looked up, fragment)”, the “Activity Relative to PMO” value under setting [2] is listed as 1.4.
